The experiment addresses T1, KRAS G12C 1-169, his-tagged protein, GDP-loaded (Homo sapiens, UniProt P01116, G12C).
T1 construct: KRAS G12C 1-169, his-tagged protein, GDP-loaded
Briefly: Biochemical assay: covalent modification of KRAS G12C measured by mass spectrometry (RapidFire/TOF or Q-Exactive). The settings on record: covalent binding to KRAS G12C. Summed up:
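GDP-loaded his-tagged KRAS G12C 1-169 at 2 μM in 20 mM Hepes, 150 mM NaCl, 1 mM MgCl2 incubated at room temperature with compound (10, 30 or 100 μM final, 2% DMSO) for 30 min, 2 h or 24 h, then quenched with formic acid. Intact-protein LC-MS (RapidFire/TOF or Q-Exactive) with deconvolution quantified modified versus unmodified protein.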

Binding % data for 18 molecules are collected here from patent US10829458B2 (Araxes Pharma LLC, priority 2015, dated 2020).

On to `C=CC(=O)N1CCC(Nc2ncnc3c(F)c(-c4c(O)cccc4F)c(Cl)cc23)C1` (stereo not drawn) [II-9, 1-(3-((6-chloro-8-fluoro-7-(2-fluoro-6-hydroxyphenyl)quinazolin-4-yl)amino)pyrrolidin-1-yl)prop-2-en-1-one], for which, for the setting “compounds of structure (II)”, the Binding % entry is reported as “+ (+ indicates binding activity up to 50%)”.
On to `C=CC(=O)N1[C@H](C)CN(c2ncnc3c(F)c(-c4c(C)ccc5cn[nH]c45)c(Cl)cc23)C[C@@H]1C` [III-35, 1-((2S,6R)-4-(6-chloro-8-fluoro-7-(6-methyl-1H-indazol-7-yl)quinazolin-4-yl)-2,6-dimethyl-piperazin-1-yl)prop-2-en-1-one], for which the Binding % entry (compounds of structure (III)) was “+++ (+++ indicates binding activity greater than 90%)”.
`C=CC(=O)N1CCN(c2nc(OCCc3cccc(C)n3)nc3c(F)c(-c4c(O)cccc4F)c(Cl)cc23)CC1` [Example I-89, 1-(4-(6-chloro-8-fluoro-7-(2-fluoro-6-hydroxyphenyl)-2-(2-(6-methyl-pyridin-2-yl)ethoxy)quinazolin-4-yl)piperazin-1-yl)prop-2-en-1-one]: the Binding % entry (compounds of structure (I)) was “+++ (+++ indicates binding activity greater than 90%)”.
Same read-out and setting: then `C=CC(=O)N1CCN(c2nc(NC3CCN(C4CC4)CC3)nc3c(F)c(-c4c(C)ccc5[nH]ncc45)c(Cl)cc23)CC1` [Example I-20, 1-(4-(6-chloro-2-(1-cyclopropyl-piperidin-4-ylamino)-8-fluoro-7-(5-methyl-1H-indazol-4-yl)quinazolin-4-yl)piperazin-1-yl)prop-2-en-1-one], with “+++ (+++ indicates binding activity greater than 90%)”.
In the case of `C=CC(=O)N1CCN(c2ncnc3c(F)c(-c4c(C)ccc5cn[nH]c45)c(Cl)cc23)[C@@H](C)C1` [III-3, 1-((3S)-4-(6-chloro-8-fluoro-7-(6-methyl-1H-indazol-7-yl)quinazolin-4-yl)-3-methyl-piperazin-1-yl)prop-2-en-1-one], under “compounds of structure (III)”, the Binding % result is listed as “++ (++ indicates activity from 50% to 90%)”.
For `C=CC(=O)N1CCN(c2nc(NCCN(CC)CC)nc3c(F)c(-c4c(O)cccc4F)c(Cl)cc23)CC1` [Example I-151, l-(4-(6-chloro-2-(2-(diethyl-amino)ethylamino)-8-fluoro-7-(2-fluoro-6-hydroxyphenyl)quinazolin-4-yl)piperazin-1-yl) prop-2-en-1-one], the Binding % entry (compounds of structure (I)) is given as “+++ (+++ indicates binding activity greater than 90%)”.
As for `C=CC(=O)N1CCN(c2nc(OCCc3ccccn3)nc3c(F)c(-c4c(O)cccc4F)c(Cl)cc23)CC1` [Example I-45, 1-(4-(6-chloro-8-fluoro-7-(2-fluoro-6-hydroxyphenyl)-2-(2-(pyridin-2-yl)ethoxy)quinazolin-4-yl)piperazin-1-yl)prop-2-en-1-one], the Binding % result (compounds of structure (I)) is reported as “+++ (+++ indicates binding activity greater than 90%)”.
As to `C=CC(=O)N1CCN(c2nc(OCCN3CC(F)(F)C3)nc3c(F)c(-c4c(O)cccc4F)c(Cl)cc23)CC1` [Example I-36, 1-(4-(6-chloro-2-(2-(3,3-difluoroazetidin-1-yl)ethoxy)-8-fluoro-7-(2-fluoro-6-hydroxyphenyl)quinazolin-4-yl)piperazin-1-yl) prop-2-en-1-one], the Binding % entry (compounds of structure (I)) is given as “+++ (+++ indicates binding activity greater than 90%)”.
Still for that read-out and setting: as for `C=CC(=O)N1CCN(c2nc(OCCN(CC)CC)nc3c(F)c(-c4c(O)cccc4F)c(Cl)cc23)CC1` [Example I-40, 1-(4-(6-chloro-2-(2-(diethyl-amino)ethoxy)-8-fluoro-7-(2-fluoro-6-hydroxyphenyl)quinazolin-4-yl)piperazin-1-yl) prop-2-en-1-one], the entry is “+++ (+++ indicates binding activity greater than 90%)”; as for `C=CC(=O)N1CCN(c2nc(NCCF)nc3c(F)c(-c4cc(O)cc5ccccc45)c(Cl)cc23)CC1` [Example I-61, 1-(4-(6-chloro-8-fluoro-2-(2-fluoroethyl-amino)-7-(3-hydroxy-naphthalen-1-yl)quinazolin-4-yl)piperazin-1-yl)prop-2-en-1-one], “+++ (+++ indicates binding activity greater than 90%)”.
Consider `C=CC(=O)N1[C@H](C)CN(c2ncnc3c(F)c(-c4cc(O)cc5ccccc45)c(Cl)cc23)C[C@@H]1C` [III-27, 1-((2S,6R)-4-(6-chloro-8-fluoro-7-(3-hydroxy-naphthalen-1-yl)quinazolin-4-yl)-2,6-dimethyl-piperazin-1-yl)prop-2-en-1-one], for which the Binding % result (compounds of structure (III)) is recorded as “+++ (+++ indicates binding activity greater than 90%)”.
Turning to `C=CC(=O)N1CCN(c2nc(NCCN3CC(F)(F)C3)nc3c(F)c(-c4c(C)ccc5[nH]ncc45)c(Cl)cc23)CC1` [Example I-141, 1-(4-(6-chloro-2-(2-(3,3-difluoro-azetidin-1-yl)ethylamino)-8-fluoro-7-(5-methyl-1H-indazol-4-yl)quinazolin-4-yl)piperazin-1-yl) prop-2-en-1-one], under “compounds of structure (I)”, the Binding % entry is on record as “+++ (+++ indicates binding activity greater than 90%)”.
As to `C=CC(=O)N1CCN(c2nc(NC3CCN(C4CC4)CC3)nc3c(F)c(-c4c(C)ccc5[nH]ncc45)c(Cl)cc23)CC1` (atropisomer, axis not shown) [Example I-82, (R)-1-(4-(6-chloro-2-(1-cyclopropyl-piperidin-4-ylamino)-8-fluoro-7-(5-methyl-1H-indazol-4-yl)quinazolin-4-yl)piperazin-1-yl)prop-2-en-1-one], the Binding % entry (compounds of structure (I)) is listed as “+++ (+++ indicates binding activity greater than 90%)”.
As to `C=C(F)C(=O)N1CCN(c2nc(OCCN3CCOCC3)nc3c(F)c(-c4cc(O)cc5ccccc45)c(Cl)cc23)CC1` [Example I-50, 1-(4-(6-chloro-8-fluoro-7-(3-hydroxy-naphthalen-1-yl)-2-(2-morpholino-ethoxy)quinazolin-4-yl)piperazin-1-yl)-2-fluoroprop-2-en-1-one], the Binding % entry (compounds of structure (I)) is recorded as “++ (++ indicates binding activity from 50 to 90%)”.
`C=CC(=O)N1CCN(c2nc(OC3CCC(O)CC3)nc3c(F)c(-c4c(O)cccc4F)c(Cl)cc23)CC1` (stereo not drawn) [Example I-63, 1-(4-(6-chloro-8-fluoro-7-(2-fluoro-6-hydroxyphenyl)-2-(4-hydroxy-cyclohexyloxy)quinazolin-4-yl)piperazin-1-yl)prop-2-en-1-one]: the Binding % result (compounds of structure (I)) was “+++ (+++ indicates binding activity greater than 90%)”.
Consider `C=CC(=O)N1CCN(c2nc(NC3CCCN(CC(F)(F)F)C3)nc3c(F)c(-c4c(O)cccc4F)c(Cl)cc23)CC1` (stereo not drawn) [Example I-133, 1-(4-(6-chloro-8-fluoro-7-(2-fluoro-6-hydroxyphenyl)-2-(1-(2,2,2-trifluoroethyl)piperidin-3-ylamino)quinazolin-4-yl)piperazin-1-yl) prop-2-en-1-one], for which the Binding % entry (compounds of structure (I)) is “++ (++ indicates binding activity from 50 to 90%)”.
As to `C=CC(=O)N1CCN(c2nc(NC3CN(C4CCOCC4)C3)nc3c(F)c(-c4c(O)cccc4F)c(Cl)cc23)CC1` [Example I-185, 1-(4-(6-chloro-8-fluoro-7-(2-fluoro-6-hydroxyphenyl)-2-((1-(tetrahydro-2H-pyran-4-yl)azetidin-3-yl)amino)quinazolin-4-yl)piperazin-1-yl) prop-2-en-1-one], the Binding % entry (compounds of structure (I)) is “+ (+ indicates binding activity up to 50%)”.
Still for that read-out and setting: then `C=CC(=O)N1CCN(c2nc(OCC3CN(c4ncccn4)C3)nc3c(F)c(-c4c(C)ccc5[nH]ncc45)c(Cl)cc23)CC1` [Example I-170, 1-(4-(6-chloro-8-fluoro-7-(5-methyl-1H-indazol-4-yl)-2-((1-(pyrimidin-2-yl)azetidin-3-yl)methoxy)quinazolin-4-yl)piperazin-1-yl) prop-2-en-1-one], with “++ (++ indicates binding activity from 50 to 90%)”.
